Measurements as given in patent US20230157996A1, “SMALL-MOLECULE INHIBITOR TARGETING EB VIRUS NUCLEAR ANTIGEN PROTEIN, PREPARATION METHOD AND USE THEREOF” (priority 2020, published 2023).

System: C666-1 cells
Assay: C666-1 cell viability single concentration (50 μM) inhibition rate (Resazurin)
Type: cell-based
Details: Homo sapiens, C6661, 72 h, 50 μM compound, 72 hours, C666-1 cells; read-out: C666-1 cell viability single concentration (50 μM) inhibition rate, Ratio* (Inh %)
In short: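 EBV-positive C666-1 cells (5×10^3/well), pre-cultured 24 h, were exposed to compound at 50 μmol/L final for 72 h at 37° C, 5% CO2, in duplicate. Viability by resazurin (3 h, ex 560/em 590 nm); inhibition rate computed relative to DMSO control and medium-only blank.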

Row | Compound | inhibition at 50 µM
1 | COC(=O)c1cccc(N2CC([S+]([O-])c3ccc(C)cc3)C2)c1-n1cccc1 (centres unmarked) [Example 191, Methyl 2-(1H-pyrrol-1-yl)-3-(3-(p-tolylsulfinyl)azetidin-1-yl)benzoate] | 10 to 30%
2 | COC(=O)c1cccc(N2CC(S(=O)(=O)c3ccc(C)cc3)C2)c1-n1cccc1 [Example 192, Methyl 2-(1H-pyrrol-1-yl)-3-(3-(p-tolylsulfonyl)azetidin-1-yl)benzoate] | 10 to 30%
3 | Cc1ccc([S+]([O-])C2CN(c3cccc(C(=O)O)c3-n3cccc3)C2)cc1 (centres unmarked) [Example 193] | < 10%
4 | COC(=O)c1cccc(N2CC(Oc3ccc(Oc4ccc(Cl)cc4)cc3)C2)c1-n1cccc1 [Example 194, Methyl 3-(3-(4-(4-chlorophenoxy)phenoxy)azetidin-1-yl)-2-(1H-pyrrol-1-yl)benzoate] | < 10%
5 | O=C(O)c1cccc(N2CC(Oc3ccc(Oc4ccc(Cl)cc4)cc3)C2)c1-n1cccc1 [Example 195, 3-(3-(4-(4-chlorophenoxy)phenoxy)azetidin-1-yl)-2-(1H-pyrrol-1-yl)benzoic acid] | 10 to 30%
6 | COC(=O)c1cccc(N2CC(Oc3ccc(Oc4cccc(OC)c4)cc3)C2)c1-n1cccc1 [Example 196, Methyl 3-(3-(4-(3-methoxyphenoxy)phenoxy)azetidin-1-yl)-2-(1H-pyrrol-1-yl)benzoate] | < 10%
7 | COC(=O)c1cccc(N2CC(Oc3ccc(Oc4ccccc4)c(Cl)c3)C2)c1-n1cccc1 [Example 198, Methyl 3-(3-(3-chloro-4-phenoxyphenoxy)azetidin-1-yl)-2-(1H-pyrrol-1-yl)benzoate] | < 10%
8 | O=C(O)c1cccc(N2CC(Oc3ccc(Oc4ccccc4)c(Cl)c3)C2)c1-n1cccc1 [Example 199, 3-(3-(3-chloro-4-phenoxyphenoxy)azetidin-1-yl)-2-(1H-pyrrol-1-yl)benzoic acid] | 30 to 50%
9 | COC(=O)c1cccc(N2CC(Oc3ccc(Oc4ccccc4)c(F)c3)C2)c1-n1cccc1 [Example 200, Methyl 3-(3-(3-fluoro-4-phenoxyphenoxy)azetidin-1-yl)-2-(1H-pyrrol-1-yl)benzoate] | < 10%
10 | O=C(O)c1cccc(N2CC(Oc3ccc(Oc4ccccc4)c(F)c3)C2)c1-n1cccc1 [Example 201, 3-(3-(3-fluoro-4-phenoxyphenoxy)azetidin-1-yl)-2-(1H-pyrrol-1-yl)benzoic acid] | 30 to 50%
11 | COC(=O)c1cccc(N2CC(Oc3ccc(Oc4ccc(F)cc4)cc3)C2)c1-n1cccc1 [Example 202, Methyl 3-(3-(4-(4-fluorophenoxy)phenoxy)azetidin-1-yl)-2-(1H-pyrrol-1-yl)benzoate] | < 10%
12 | O=C(O)c1cccc(N2CC(Oc3ccc(Oc4ccc(F)cc4)cc3)C2)c1-n1cccc1 [Example 203, 3-(3-(4-(4-fluorophenoxy)phenoxy)azetidin-1-yl)-2-(1H-pyrrol-1-yl)benzoic acid] | 10 to 30%
13 | COC(=O)c1cccc(N2CC(Oc3cc(F)c(Oc4ccccc4)c(F)c3)C2)c1-n1cccc1 [Example 204, Methyl 3-(3-(3,5-difluoro-4-phenoxyphenoxy)azetidin-1-yl)-2-(1H-pyrrol-1-yl)benzoate] | < 10%
14 | O=C(O)c1cccc(N2CC(Oc3cc(F)c(Oc4ccccc4)c(F)c3)C2)c1-n1cccc1 [Example 205, 3-(3-(3,5-difluoro-4-phenoxyphenoxy)azetidin-1-yl)-2-(1H-pyrrol-1-yl)benzoic acid] | < 10%
15 | COC(=O)c1cccc(N2CC(Oc3ccc(Oc4ccc(C(C)=O)cc4)cc3)C2)c1-n1cccc1 [Example 206, Methyl 3-(3-(4-(4-acetylphenoxy)phenoxy)azetidin-1-yl)-2-(1H-pyrrol-1-yl)benzoate] | < 10%
16 | CC(=O)c1ccc(Oc2ccc(OC3CN(c4cccc(C(=O)O)c4-n4cccc4)C3)cc2)cc1 [Example 207, 3-(3-(4-(4-acetylphenoxy)phenoxy)azetidin-1-yl)-2-(1H-pyrrol-1-yl)benzoic acid] | 10 to 30%
17 | COC(=O)c1cccc(N2CC(Oc3ccc(Sc4ccccc4)cc3)C2)c1-n1cccc1 [Example 208, Methyl 3-(3-(4-(thiophenyl)phenoxy)azetidin-1-yl)-2-(1H-pyrrol-1-yl)benzoate] | < 10%
18 | O=C(O)c1cccc(N2CC(Oc3ccc(Sc4ccccc4)cc3)C2)c1-n1cccc1 [Example 209, 3-(3-(4-(thiophenyl)phenoxy)azetidin-1-yl)-2-(1H-pyrrol-1-yl)benzoic acid] | 10 to 30%
19 | COC(=O)c1cccc(N2CC(Oc3ccc(Oc4ccc(C#N)cc4)cc3)C2)c1-n1cccc1 [Example 210, Methyl 3-(3-(4-(4-cyanophenoxy)phenoxy)azetidin-1-yl)-2-(1H-pyrrol-1-yl)benzoate] | 10 to 30%

Row | Compound | inhibition at 50 µM
20 | N#Cc1ccc(Oc2ccc(OC3CN(c4cccc(C(=O)O)c4-n4cccc4)C3)cc2)cc1 [Example 211, 3-(3-(4-(4-cyanophenoxy)phenoxy)azetidin-1-yl)-2-(1H-pyrrol-1-yl)benzoic acid] | < 10%
21 | COC(=O)c1cccc(N2CC(Oc3ccc(Oc4ccc(S(C)(=O)=O)cc4)cc3)C2)c1-n1cccc1 [Example 212, Methyl 3-(3-(4-(4-(methylsulfonyl)phenoxy)phenoxy)azetidin-1-yl)-2-(1H-pyrrol-1-yl)benzoate] | 10 to 30%
22 | CS(=O)(=O)c1ccc(Oc2ccc(OC3CN(c4cccc(C(=O)O)c4-n4cccc4)C3)cc2)cc1 [Example 213, 3-(3-(4-(4-(methylsulfonyl)phenoxy)phenoxy)azetidin-1-yl)-2-(1H-pyrrol-1-yl)benzoic acid] | < 10%
23 | CCC(=O)c1ccc(OC2CN(c3cccc(C(=O)OC)c3-n3cccc3)C2)cc1 [Example 214, Methyl 3-(3-(4-propionylphenoxy)azetidin-1-yl)-2-(1H-pyrrol-1-yl)benzoate] | < 10%
24 | CCC(=O)c1ccc(OC2CN(c3cccc(C(=O)O)c3-n3cccc3)C2)cc1 [Example 215, 3-(3-(4-propionylphenoxy)azetidin-1-yl)-2-(1H-pyrrol-1-yl)benzoic acid] | < 10%
25 | COC(=O)c1cccc(N2CC(Oc3ccc(C(=O)C(C)C)cc3)C2)c1-n1cccc1 [Example 216, Methyl 3-(3-(4-isobutyrylphenoxy)azetidin-1-yl)-2-(1H-pyrrol-1-yl)benzoate] | < 10%
26 | CC(C)C(=O)c1ccc(OC2CN(c3cccc(C(=O)O)c3-n3cccc3)C2)cc1 [Example 217, 3-(3-(4-isobutyrylphenoxy)azetidin-1-yl)-2-(1H-pyrrol-1-yl)benzoic acid] | < 10%
27 | COCCOc1ccc(OC2CN(c3cccc(C(=O)OC)c3-n3cccc3)C2)cc1OC [Example 218, Methyl 3-(3-(3-methoxy-4-(2-methoxyethoxy)phenoxy)azetidin-1-yl)-2-(1H-pyrrol-1-yl)benzoate] | 10 to 30%
28 | COCCOc1ccc(OC2CN(c3cccc(C(=O)O)c3-n3cccc3)C2)cc1OC [Example 219, 3-(3-(3-methoxy-4-(2-methoxyethoxy)phenoxy)azetidin-1-yl)-2-(1H-pyrrol-1-yl)benzoic acid] | < 10%
29 | COC(=O)c1cccc(N2CC(Oc3ccc(OCCNC(C)=O)c(OC)c3)C2)c1-n1cccc1 [Example 220, Methyl 3-(3-(4-(2-acetylaminoethoxy)-3-methoxyphenoxy)azetidin-1-yl)-2-(1H-pyrrol-1-yl)benzoate] | 10 to 30%
30 | COc1cc(OC2CN(c3cccc(C(=O)O)c3-n3cccc3)C2)ccc1OCCNC(C)=O [Example 221, 3-(3-(4-(2-acetylaminoethoxy)-3-methoxyphenoxy)azetidin-1-yl)-2-(1H-pyrrol-1-yl)benzoic acid] | < 10%
31 | COC(=O)c1cccc(N2CC(Oc3cccc(Oc4ccccc4)c3)C2)c1-n1cccc1 [Example 222, Methyl 3-(3-(3-phenoxyphenoxy)azetidin-1-yl)-2-(1H-pyrrol-1-yl)benzoate] | < 10%
32 | O=C(O)c1cccc(N2CC(Oc3cccc(Oc4ccccc4)c3)C2)c1-n1cccc1 [Example 223, 3-(3-(3-phenoxyphenoxy)azetidin-1-yl)-2-(1H-pyrrol-1-yl)benzoic acid] | < 10%
33 | COCCOc1ccc(OC2CN(c3cccc(C(=O)OC)c3-n3cccc3)C2)cc1 [Example 224, Methyl 3-(3-(4-(2-methoxyethoxy)phenoxy)azetidin-1-yl)-2-(1H-pyrrol-1-yl)benzoate] | < 10%
34 | COCCOc1ccc(OC2CN(c3cccc(C(=O)O)c3-n3cccc3)C2)cc1 [Example 225, 3-(3-(4-(2-methoxyethoxy)phenoxy)azetidin-1-yl)-2-(1H-pyrrol-1-yl)benzoic acid] | 10 to 30%
35 | COC(=O)c1cccc(N2CC(Oc3ccc(NC(=S)Nc4ccc(Cl)cc4)cc3)C2)c1-n1cccc1 [Example 226, Methyl 3-(3-(4-(3-(4-chlorophenyl)thioureido)phenoxy)azetidin-1-yl)-2-(1H-pyrrol-1-yl)benzoate] | 10 to 30%
36 | COC(=O)c1cccc(N2CC(Oc3ccc(NC(=S)Nc4cccc(Cl)c4)cc3)C2)c1-n1cccc1 [Example 227, Methyl 3-(3-(4-(3-(3-chlorophenyl)thioureido)phenoxy)azetidin-1-yl)-2-(1H-pyrrol-1-yl)benzoate] | 10 to 30%
37 | COC(=O)c1cccc(N2CC(Oc3ccc(NC(=S)Nc4cccc(C#N)c4)cc3)C2)c1-n1cccc1 [Example 228, Methyl 3-(3-(4-(3-(3-cyanophenyl)thioureido)phenoxy)azetidin-1-yl)-2-(1H-pyrrol-1-yl)benzoate] | > 50%
38 | COC(=O)c1cccc(N2CC(Oc3ccc(NC(=O)Nc4ccc(C(F)(F)F)cc4)cc3)C2)c1-n1cccc1 [Example 229, Methyl 3-(3-(4-(3-(4-(trifluoromethyl)phenyl)ureido)phenoxy)azetidin-1-yl)-2-(1H-pyrrol-1-yl)benzoate] | > 50%
